In PMC10064330, “Reversible Dual-Covalent Molecular Locking of the 14-3-3/ERRγ Protein–Protein Interaction as a Molecular Glue Drug Discovery Approach” (Journal of the American Chemical Society, 2023):

Molecular target: T1, 14-3-3γ/ERRγ complex (Homo sapiens, UniProt P61981+P62508)
T1 construct: made in house; host or cells: E. coli NiCo21 (DE3)
Assay: Fluorescence anisotropy (FA): 14-3-3γ titration to fluorescein-ERRγ phosphopeptide with 100 μM compound
Type: binding
Settings: for SF100 / stabilization (SF100) at high TCEP / stabilization of 14-3-3γ/ERRγ complex (SF100, fold): 100 μM compound; for SF100: 50 μM TCEP; for stabilization (SF100) at high TCEP: 1 mM TCEP; for stabilization of 14-3-3γ/ERRγ complex (SF100, fold): 24 h incubation; for stabilization factor SF100, Replicate 1 (Table S2) / stabilization factor SF100, Replicate 2 (Table S2) / stabilization factor SF100, Replicate 3 (Table S2) / stabilization factor SF100, Average (Table S2): KD DMSO control / apparent KD with 100 μM compound, 24 h; for stabilization factor SF100, Average (Table S2): average of three experiments
Experimental: The stabilization of the ERRγ/14-3-3γ complex by the molecular locks was assessed using a fluorescence anisotropy (FA) assay where 14-3-3γ was titrated into a fluorescently labeled ERRγ phosphopeptide in the absence or presence of a 100 μM molecular lock (Figure 2a,b); this compound concentration was selected based on a FA compound titration assay (Figure S1).
Experimental Section Biophysical Assays
14-3-3γ protein expression (FA, TSA, MS assays)
A pPROEX HTb expression vector encoding the human 14-3-3 protein gamma (14-3-3γ) with a N-terminal his6-tag was transformed by heat shock into NiCo21 (DE3) competent cells. Single colonies were cultured in 50 mL LB medium (100 µg/mL ampicillin). After overnight incubation at 37 °C, cultures were transferred to 2 L TB media (100 µg/mL ampicillin, 1 mM MgCl2) and incubated at 37 °C until an OD600 nm of 0.8 -1.2 was reached. Protein expression was then induced with 0.4 mM isopropyl-β-d-thiogalactoside (IPTG), and cultures were incubated overnight at 18 °C. Cells were harvested by centrifugation (8600 rpm, 20 minu tes, 4 °C) and resuspended in lysis buffer (50 mM Hepes, pH 8.0, 300 mM NaCl, 12.5 mM imidazole, 5 mM MgCl2, 2 mM βME) containing cOmplete™ EDTA-free Protease Inhibitor Cocktail tablets (1 tablet/100 ml lysate) and benzonase ( 5 µl/100 ml). After lysis using a C3 Emulsiflex-C3 homogenizer (Avestin), the cell lysate was cleared by centrifugation (20000 rpm, 30 minutes, 4 °C) and purified using Ni2+-affinity chromatography (Ni -NTA superflow cartridges, Qiagen). Typically two 5 mL columns (flow 5 mL/min) were use d for a 2 L culture in which the lysate was loaded on the column , washed with 10 CV wash buffer (50 mM Hepes, pH 8.0, 300 mM NaCl, 25 mM imidazole, 2 mM βME), and eluted in several fractions (2-4 CV) of elution buffer (50 mM Hepes, pH 8.0, 300 mM NaCl, 250 mM imidazole, 2 mM βME). Fractions containing the 14 -3-3 protein were combined and dialyzed into 25 mM HEPES pH 8.0, 100 mM NaCl, 10 mM MgCl2, 500 µM TCEP. Finally, the protein was concentrated to ∼60 mg/mL, analyzed Q-Tof LC/MS, and aliquots were flash-frozen for storage at −80 °C.
14-3-3σΔc C38N protein expression (Crystallography)
A pPROEX HTb expression vector encoding the human 14-3-3 protein sigma truncated after T231 (14-3-3σΔc), mutated C38N, and containing a N-terminal his6-tag was transformed by heat shock into NiCo21 (DE3) competent cells. Single colonies were cultured in 50 mL LB medium (100 µg/mL ampicillin). After overnight incubation at 37 °C, cultures were transferred to 2 L TB media (100 µg/mL ampicillin, 1 mM MgCl2) and incubated at 37 °C until an OD600 nm of 0.8-1.2 was reached. Protein expression was then induced with 0.4 mM isopropyl-β-d-thiogalactoside (IPTG), and cultures were incubated overnight at 18 °C. Cells were harvested by centrifugation (8600 rpm, 20 minutes, 4 °C) and resuspended in lysis buffer (50 mM Hepes, pH 8.0, 300 mM NaCl, 12.5 mM imidazole, 5 mM MgCl2, 2 mM βME) containing cOmplete™ EDTA-free Protease Inhibitor Cocktail tablets (1 tablet/ 100 ml lysate) and benzonase (5 µl/ 100 ml). After lysis using a C3 Emulsiflex-C3 homogenizer (Avestin), […]
chromatography (Ni-NTA superflow cartridges, Qiagen). Typically two 5 mL columns were used for a 2 L culture in which the lysate was loaded on the column , washed with 10 CV wash buffer (50 mM Hepes, pH 8.0, 300 mM NaCl, 25 mM imidazole, 2 mM βME), and eluted with several fractions (2 -4 CV) of elution buffer (50 mM Hepes, pH 8.0, 300 mM NaCl, 250 mM imidazole, 2 mM βME). Fractions containing the 14-3-3 protein were combined and dialyzed into 25 mM HEPES pH 8.0, 200 mM NaCl, 10 mM MgCl 2, 2 mM βME. In addition, 1 mg TEV was added for each 100 mg purified protein to remove the purification tag. The cleaved sample was then again loaded on a 10 mL Ni-NTA column to separate the cleaved product from the expression tag and residual uncleaved protein. The flowthrough was loaded on a Superdex 75 pg 16/60 size exc lusion column (GE Life Sciences) using […]

T1 sequence (P61981 whole entry, other chains not shown): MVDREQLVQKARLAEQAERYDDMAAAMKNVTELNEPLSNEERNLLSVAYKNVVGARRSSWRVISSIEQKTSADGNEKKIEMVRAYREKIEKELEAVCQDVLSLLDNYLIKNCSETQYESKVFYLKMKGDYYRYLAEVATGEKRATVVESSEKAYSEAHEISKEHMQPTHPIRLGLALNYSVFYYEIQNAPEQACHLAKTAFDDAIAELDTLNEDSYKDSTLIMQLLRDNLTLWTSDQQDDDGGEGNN

Row | Compound | SF100 | stabilization (SF100) at high TCEP | stabilization of 14-3-3γ/ERRγ complex (SF100, fold) | stabilization factor SF100, Replicate 1 (Table S2) | stabilization factor SF100, Replicate 2 (Table S2) | stabilization factor SF100, Replicate 3 (Table S2) | stabilization factor SF100, Average (Table S2)
1 | CN(C)CCSSCCN(C)C(=O)c1cccc(F)c1 [compound 1, reference compound] | 5 | completely abolished | five-fold | 5.3 | 3.7 | 4.6 | 4.6
2 | CN(C)CCNC(=O)c1ccc(C=O)c(F)c1 [compound 3] |  |  | 1 | 1.0 | 1.0 | 0.9 | 1.0
3 | CN(C)CCSSCCN(C)C(=O)c1ccc(C=O)c(F)c1 [compound 5] |  | completely abolished |  | 27.0 | 17.8 | 16.5 | 20.4
4 | CN(C)CCSSCCN(C)C(=O)c1cc(Br)cc(C=O)c1 [compound 10] | 37 | completely abolished |  | 37.6 | 34.1 | 38.8 | 36.9
